Among the data in PubChem BioAssay (NCI) are GI50 and TGI values, retold here.

Test systems include CAKI-1 renal; HCT-116 colon; HOP-62 NSCLC; HS 578T breast; LOX IMVI melanoma; NCI/ADR-RES ovarian; OVCAR-5 ovarian; SF-268 CNS; SK-OV-3 ovarian; U251 CNS.
Holding throughout (assay): NCI-60 cell line screen, 48 h

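A five-concentration, 48-hour dose response in 96-well plates underlies each endpoint, interpolated linearly between surrounding concentrations. Abbreviation: GI50, concentration required for 50% inhibition of growth. At the TGI there is no net growth.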

For the molecule `Clc1ccc2c(c1)N(C1CCCN(Cc3ccccc3)C1)c1ccccc1S2` (configuration not stated), the GI50 in the experiment on CAKI-1 renal is 4.38 µM; with HCT-116 colon, 2.92 µM; with HOP-62 NSCLC, 22.3 µM; in the experiment on HS 578T breast, 2.12 µM; in the experiment on LOX IMVI melanoma, 6 µM; in the experiment on NCI/ADR-RES ovarian it was 3.24 µM. Besides, the GI50 in the experiment with OVCAR-5 ovarian is 14.6 µM; with SF-268 CNS, 3.8 µM; with SK-OV-3 ovarian, 3.36 µM; in the experiment with U251 CNS, 4.31 µM. In addition, the TGI with CAKI-1 renal was 24 µM; in the experiment on HCT-116 colon, 11.5 µM; in the experiment on HOP-62 NSCLC it was > 100 µM; in the experiment with HS 578T breast, 6.07 µM; in the experiment with LOX IMVI melanoma, 35.8 µM; in the experiment with NCI/ADR-RES ovarian it was 13.7 µM. For the same molecule, the TGI with OVCAR-5 ovarian, in the experiment with SF-268 CNS, in the experiment with SK-OV-3 ovarian and in the experiment on U251 CNS was > 100 µM in each case.
`COc1ccccc1/C=C\C(=O)C1COCN1` (configuration not stated): the TGI is 42.2 µM in the experiment on CAKI-1 renal; > 100 µM in the experiment with HCT-116 colon; 57.4 µM in the experiment on HOP-62 NSCLC; 50.9 µM in the experiment with HS 578T breast; 38.1 µM in the experiment on LOX IMVI melanoma; 52.3 µM in the experiment with NCI/ADR-RES ovarian. Further, the TGI came to 67.4 µM in the experiment on OVCAR-5 ovarian, 64.4 µM in the experiment with SF-268 CNS, 30.1 µM in the experiment with SK-OV-3 ovarian and 28.1 µM with U251 CNS.
On to `CNC(=O)c1c(F)cccc1Nc1nc(Nc2cc3c(cc2OC)CCN3C(=O)CN(C)C)nc2[nH]ccc12`, for which the GI50 with CAKI-1 renal is 16.1 µM; with HCT-116 colon it was 1.54 µM; in the experiment on HOP-62 NSCLC, 5.5 µM; in the experiment on HS 578T breast, 17.8 µM; in the experiment on LOX IMVI melanoma, 2.4 µM; in the experiment on NCI/ADR-RES ovarian, 9.69 µM. For the same molecule, the GI50 with OVCAR-5 ovarian was 4.88 µM; with SF-268 CNS, 5.44 µM; with SK-OV-3 ovarian, 11.5 µM; in the experiment with U251 CNS it was 2.39 µM. Also, the TGI in the experiment with CAKI-1 renal was 45.7 µM; with HCT-116 colon, 3.33 µM; in the experiment with HOP-62 NSCLC, 20.8 µM; with HS 578T breast it was 46.8 µM; in the experiment on LOX IMVI melanoma, 7.26 µM; in the experiment on NCI/ADR-RES ovarian it was > 61.5 µM. Moreover, the TGI amounted to 26.3 µM in the experiment with OVCAR-5 ovarian, 15.2 µM in the experiment with SF-268 CNS, 27.5 µM in the experiment with SK-OV-3 ovarian and 6.61 µM with U251 CNS.
Take `NC(Cc1c[nH]c2ccc([N+](=O)[O-])cc12)C(=O)O` (configuration not stated): the TGI in the experiment with CAKI-1 renal, with HCT-116 colon, in the experiment with HOP-62 NSCLC, with HS 578T breast, in the experiment with LOX IMVI melanoma and in the experiment on NCI/ADR-RES ovarian was > 100 µM throughout. The TGI in the experiment on OVCAR-5 ovarian, with SF-268 CNS, in the experiment on SK-OV-3 ovarian and with U251 CNS was > 100 µM each time.
For the molecule `COc1ccccc1[As]=[As]c1ccccc1OC` (configuration not stated), the GI50 in the experiment on CAKI-1 renal is 0.066 µM; with HCT-116 colon, 0.0245 µM; in the experiment with HOP-62 NSCLC, 0.05 µM; in the experiment with HS 578T breast, 0.0378 µM; in the experiment on LOX IMVI melanoma, 0.0384 µM; with NCI/ADR-RES ovarian, 0.0763 µM. For the same molecule, the GI50 was 0.0627 µM in the experiment with OVCAR-5 ovarian, 0.036 µM in the experiment on SF-268 CNS, 0.158 µM in the experiment on SK-OV-3 ovarian and 0.0145 µM in the experiment with U251 CNS. Further, the TGI amounted to 0.202 µM in the experiment with CAKI-1 renal; 0.0641 µM with HCT-116 colon; 0.164 µM with HOP-62 NSCLC; 0.334 µM in the experiment with HS 578T breast; 0.136 µM in the experiment with LOX IMVI melanoma; 0.306 µM in the experiment on NCI/ADR-RES ovarian. Moreover, the TGI in the experiment with OVCAR-5 ovarian came to 0.181 µM; in the experiment with SF-268 CNS it was 0.14 µM; with SK-OV-3 ovarian, 0.293 µM; in the experiment with U251 CNS, 0.0311 µM.
Take `N#Cc1nc(C#N)c(Sc2ccccc2)c(Sc2ccccc2)c1Sc1ccccc1`: the GI50 in the experiment with CAKI-1 renal was 1.22 µM; in the experiment on HCT-116 colon, 0.301 µM; in the experiment on HS 578T breast it was 0.463 µM; in the experiment with LOX IMVI melanoma, 0.17 µM; with NCI/ADR-RES ovarian it was 0.504 µM; in the experiment on OVCAR-5 ovarian, 2.34 µM. Further, the GI50 in the experiment with SF-268 CNS is 0.331 µM; with SK-OV-3 ovarian it was 3.27 µM; in the experiment with U251 CNS it was 0.51 µM. Further, the TGI in the experiment on CAKI-1 renal is > 100 µM; in the experiment with HOP-62 NSCLC, > 20 µM; in the experiment on HS 578T breast, > 100 µM; in the experiment on LOX IMVI melanoma, 0.344 µM; in the experiment with NCI/ADR-RES ovarian it was > 100 µM; in the experiment with OVCAR-5 ovarian, 4.68 µM. For the same molecule, the TGI in the experiment with SF-268 CNS stood at 1.03 µM; in the experiment on SK-OV-3 ovarian it was 9.01 µM; in the experiment on U251 CNS, 1.86 µM.
Consider `COS(C)(=O)=O`, for which the TGI in the experiment on CAKI-1 renal, in the experiment on HCT-116 colon, in the experiment with HOP-62 NSCLC, with HS 578T breast, with LOX IMVI melanoma and in the experiment with NCI/ADR-RES ovarian was > 2 µM throughout. The TGI in the experiment with OVCAR-5 ovarian, in the experiment with SF-268 CNS, with SK-OV-3 ovarian and with U251 CNS was > 2 µM throughout.
In the case of `Oc1ccc2ccccc2c1C=NCc1c(O)ccc2ccccc12`, the TGI in the experiment with CAKI-1 renal, in the experiment on HCT-116 colon, in the experiment on HOP-62 NSCLC, in the experiment with HS 578T breast, in the experiment on LOX IMVI melanoma and in the experiment with NCI/ADR-RES ovarian was > 100 µM each time. For the same molecule, the TGI in the experiment on OVCAR-5 ovarian, with SF-268 CNS, with SK-OV-3 ovarian and in the experiment on U251 CNS was > 100 µM each time.
`C#CC1(O)C(COP(=O)(O)OCC2OC(n3cc(F)c(=O)[nH]c3=O)CC2O)OC(n2ccc(N)nc2=O)C1O` (configuration not stated): the GI50 is < 0.01 µM with CAKI-1 renal; < 0.01 µM in the experiment with HCT-116 colon; < 0.0328 µM in the experiment with HOP-62 NSCLC; < 0.0265 µM with HS 578T breast; < 0.01 µM in the experiment with LOX IMVI melanoma; < 0.0115 µM in the experiment on NCI/ADR-RES ovarian. In addition, the GI50 in the experiment with OVCAR-5 ovarian was 0.309 µM; in the experiment with SF-268 CNS it was < 0.01 µM; in the experiment with SK-OV-3 ovarian, > 100 µM; in the experiment on U251 CNS, < 0.0273 µM. Besides, the TGI in the experiment on HCT-116 colon is > 100 µM; in the experiment with HOP-62 NSCLC, 1.28 µM; with HS 578T breast, 8.44 µM; in the experiment with NCI/ADR-RES ovarian, 16 µM; in the experiment with OVCAR-5 ovarian, > 59.1 µM; in the experiment on SF-268 CNS, 5.81 µM. Moreover, the TGI in the experiment with SK-OV-3 ovarian and in the experiment with U251 CNS was > 100 µM throughout.
Consider `c1ccc(Oc2ccc(Nc3ncc(-c4ccccc4)o3)cc2)cc1`, for which the GI50 with CAKI-1 renal, with HCT-116 colon, with HOP-62 NSCLC, in the experiment with HS 578T breast, in the experiment with LOX IMVI melanoma and in the experiment with NCI/ADR-RES ovarian was > 25 µM each time. In addition, the GI50 with OVCAR-5 ovarian, in the experiment on SF-268 CNS, in the experiment on SK-OV-3 ovarian and in the experiment with U251 CNS was > 25 µM each time. For the same molecule, the TGI in the experiment with CAKI-1 renal, in the experiment on HCT-116 colon, in the experiment on HOP-62 NSCLC, in the experiment on HS 578T breast, in the experiment with LOX IMVI melanoma and with NCI/ADR-RES ovarian was > 25 µM in each case. The TGI with OVCAR-5 ovarian, with SF-268 CNS, in the experiment on SK-OV-3 ovarian and with U251 CNS was > 25 µM in each case.
Turning to `CC(=O)Nc1ccc(S(=O)(=O)N=S(C)C)cc1`, the TGI in the experiment on CAKI-1 renal, with HCT-116 colon, in the experiment on HOP-62 NSCLC, with HS 578T breast, with LOX IMVI melanoma and with NCI/ADR-RES ovarian was > 100 µM each time. Also, the TGI in the experiment on OVCAR-5 ovarian, with SF-268 CNS, in the experiment on SK-OV-3 ovarian and in the experiment on U251 CNS was > 100 µM in each case.
Regarding `CCCCOc1ccc(/C=N/Nc2cc(C)nc3ccc(Br)cc23)cc1`, the GI50 in the experiment with CAKI-1 renal is 1.71 µM; in the experiment with HCT-116 colon, 1.77 µM; with HOP-62 NSCLC, 1.47 µM; with HS 578T breast, 1.99 µM; in the experiment with LOX IMVI melanoma it was 1.77 µM; with NCI/ADR-RES ovarian it was 1.96 µM. Further, the GI50 with OVCAR-5 ovarian was 1.86 µM; in the experiment on SK-OV-3 ovarian it was 1.66 µM; with U251 CNS, 1.8 µM. Also, the TGI in the experiment with CAKI-1 renal is 3.11 µM; in the experiment on HCT-116 colon, 3.31 µM; in the experiment with HOP-62 NSCLC, 2.94 µM; in the experiment on HS 578T breast, 4.71 µM; in the experiment on LOX IMVI melanoma, 3.24 µM; with NCI/ADR-RES ovarian it was 3.85 µM. The TGI with OVCAR-5 ovarian came to 3.25 µM; in the experiment on SK-OV-3 ovarian, 3.05 µM; with U251 CNS, 3.27 µM.
For `O=C(/C=C/c1ccccn1)c1ccc(OCc2nnc(-c3ccc(Cl)cc3)o2)cc1`, the GI50 was 1.69 µM with CAKI-1 renal; 0.45 µM in the experiment with HCT-116 colon; 2.26 µM with HOP-62 NSCLC; 3.33 µM in the experiment on HS 578T breast; 1.57 µM with LOX IMVI melanoma; 3.67 µM in the experiment on NCI/ADR-RES ovarian. Further, the GI50 in the experiment on OVCAR-5 ovarian is 2.49 µM; in the experiment on SK-OV-3 ovarian, 3.82 µM; in the experiment with U251 CNS, 1.64 µM. The TGI came out at 3.24 µM with CAKI-1 renal; 1.62 µM with HCT-116 colon; 5.65 µM with HOP-62 NSCLC; 10.3 µM in the experiment with HS 578T breast; 3.01 µM with LOX IMVI melanoma; 41.3 µM in the experiment on NCI/ADR-RES ovarian. Further, the TGI was found to be 4.89 µM with OVCAR-5 ovarian, 10.4 µM with SK-OV-3 ovarian and 3.05 µM with U251 CNS.
